One test concerns cyclin D1. Put plainly: Cyclin D1 percentage degradation in Calu-1 cells (immunoblotting). It counts as cell-based. Particulars: 200 nM, 16 hours. As for the experimental part: (§1) […] A: protein percentage degradation >=80%; B: protein percentage degradation <80%, and >=50%; C: protein percentage degradation <50%, and >=30%; D: protein percentage degradation <30%.
(§2) Cultured cells were washed with cold PBS once and lysed in cold RIPA buffer supplemented with protease inhibitors and phosphatase inhibitors (Beyotime Biotechnology). The solutions were then incubated at 4° C. for 30 min with gentle agitation to fully lysed cells. Cell lysates were centrifuged at 13,000 rpm for 10 min at 4° C. and pellets were discarded. Total protein concentrations in the lysates were determined following BCA assays (Beyotime Biotechnology). Cell lysates were mixed with Laemmli loading buffer and heated at 99° C. for 5 min. Proteins were resolved on SDS-PAGE and visualized using Western ECL Substrate kits on a ChemiDoc MP Imaging system (Bio-Rad). Protein bands were quantitated using the Image Lab software provided by Bio-Rad.
For orientation: A western blot detects proteins with antibodies after separation by electrophoresis.

Another test concerns the target T1, CDK4 (Homo sapiens, UniProt P11802).
T1 construct: endogenous in cells; host or cells: Calu-1
Put plainly: CDK4 percentage degradation in Calu-1 cells (immunoblotting). It counts as cell-based. Particulars: read-out: CDK4 Degradation (200 nM). The procedure:
as §1, §2

Like-named read-outs stand apart in the source and are kept apart here.

T1 sequence (P11802 2-303 limits assumed): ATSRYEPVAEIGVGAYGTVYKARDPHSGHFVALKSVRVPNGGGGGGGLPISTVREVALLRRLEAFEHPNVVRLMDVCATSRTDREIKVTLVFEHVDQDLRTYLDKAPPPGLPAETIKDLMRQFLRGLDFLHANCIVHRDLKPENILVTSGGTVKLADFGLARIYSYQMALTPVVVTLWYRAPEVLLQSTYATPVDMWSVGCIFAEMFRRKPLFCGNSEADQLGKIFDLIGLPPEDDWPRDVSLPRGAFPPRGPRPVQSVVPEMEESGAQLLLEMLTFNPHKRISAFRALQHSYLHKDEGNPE
T1 sequence (P24385 whole entry partner): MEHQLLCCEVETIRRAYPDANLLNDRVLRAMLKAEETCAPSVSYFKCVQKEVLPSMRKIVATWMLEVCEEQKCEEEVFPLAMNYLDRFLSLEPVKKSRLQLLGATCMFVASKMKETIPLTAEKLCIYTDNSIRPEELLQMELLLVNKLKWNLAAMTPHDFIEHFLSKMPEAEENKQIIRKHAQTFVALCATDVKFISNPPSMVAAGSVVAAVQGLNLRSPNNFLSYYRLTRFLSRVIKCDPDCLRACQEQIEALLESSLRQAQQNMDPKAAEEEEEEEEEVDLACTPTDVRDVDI
T1 sequence (Q16531 2-1140 limits assumed, further chain): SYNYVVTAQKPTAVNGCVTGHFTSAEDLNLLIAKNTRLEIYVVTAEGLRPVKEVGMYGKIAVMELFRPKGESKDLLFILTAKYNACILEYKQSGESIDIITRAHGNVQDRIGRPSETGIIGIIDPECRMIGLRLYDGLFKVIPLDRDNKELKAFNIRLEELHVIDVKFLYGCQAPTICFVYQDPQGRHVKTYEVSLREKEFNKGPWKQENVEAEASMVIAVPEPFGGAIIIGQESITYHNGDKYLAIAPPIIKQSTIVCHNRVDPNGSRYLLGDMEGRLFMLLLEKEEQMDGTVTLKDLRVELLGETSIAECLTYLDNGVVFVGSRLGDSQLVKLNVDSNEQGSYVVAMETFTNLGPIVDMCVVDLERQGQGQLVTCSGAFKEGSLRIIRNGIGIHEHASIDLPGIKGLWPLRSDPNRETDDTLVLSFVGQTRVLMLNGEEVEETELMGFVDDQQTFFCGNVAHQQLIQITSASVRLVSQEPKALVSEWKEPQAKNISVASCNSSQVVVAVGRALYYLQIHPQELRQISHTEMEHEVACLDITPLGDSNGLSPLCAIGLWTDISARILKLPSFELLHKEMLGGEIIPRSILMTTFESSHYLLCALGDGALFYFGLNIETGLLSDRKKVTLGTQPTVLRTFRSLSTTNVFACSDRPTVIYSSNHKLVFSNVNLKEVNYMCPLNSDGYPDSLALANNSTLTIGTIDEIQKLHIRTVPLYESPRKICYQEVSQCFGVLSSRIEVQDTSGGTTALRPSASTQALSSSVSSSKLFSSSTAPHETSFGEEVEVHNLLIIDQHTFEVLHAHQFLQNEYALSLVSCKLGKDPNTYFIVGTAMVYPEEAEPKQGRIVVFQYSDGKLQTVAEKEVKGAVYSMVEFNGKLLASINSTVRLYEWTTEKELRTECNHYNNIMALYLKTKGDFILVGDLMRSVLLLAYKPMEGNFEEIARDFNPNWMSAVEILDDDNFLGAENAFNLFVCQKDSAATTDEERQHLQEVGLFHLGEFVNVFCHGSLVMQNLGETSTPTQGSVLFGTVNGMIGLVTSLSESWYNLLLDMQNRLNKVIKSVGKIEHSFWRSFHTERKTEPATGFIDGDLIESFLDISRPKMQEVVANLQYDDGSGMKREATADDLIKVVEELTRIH

For `CC(=O)c1c(C)c2cnc(Nc3ccc(N4CCN(CC(=O)NCCOCCOCCNC(=O)CNc5ccc(C(=O)Nc6ncc(C)s6)c(C)c5)CC4)cn3)nc2n(C2CCCC2)c1=O` [CPD-017, 4-((14-(4-(6-((6-Acetyl-8-cyclopentyl-5-methyl-7-oxo-7,8-dihydropyrido[2,3-d]pyrimidin-2-yl)amino)pyridin-3-yl)piperazin-1-yl)-2,13-dioxo-6,9-dioxa-3,12-diazatetradecyl)amino)-2-methyl-N-(5-methylthiazol-2-yl)benzamide], the “CyclinD1 Degradation (200 nM)” value in the test with cyclin D1 is on record as “D (protein percentage degradation <30%)”. The inhibition at 0.2 µM at CDK4 (Calu-1 cells, 200 nM, 16 hours) was under 30%.
With `CC(=O)c1c(C)c2cnc(Nc3ccc(N4CCN(CC(=O)NCCOCCOCCOCCNC(=O)CNc5ccc(C(=O)Nc6ncc(C)s6)c(C)c5)CC4)cn3)nc2n(C2CCCC2)c1=O` [CPD-018, 4-((17-(4-(6-((6-Acetyl-8-cyclopentyl-5-methyl-7-oxo-7,8-dihydropyrido[2,3-d]pyrimidin-2-yl)amino)pyridin-3-yl)piperazin-1-yl)-2,16-dioxo-6,9,12-trioxa-3,15-diazaheptadecyl)amino)-2-methyl-N-(5-methylthiazol-2-yl)benzamide], in the test on cyclin D1, the “CyclinD1 Degradation (200 nM)” value was “C (protein percentage degradation <50%, and >=30%)”. In addition, the inhibition at 0.2 µM on CDK4 (Calu-1 cells, 200 nM, 16 hours) is 30 to 50%.
As for `CC(=O)c1c(C)c2cnc(Nc3ccc(N4CCN(CC(=O)NCCOCCOCCOCCOCCOCCNC(=O)COc5ccc(C(=O)Nc6ncc(C)s6)c(C)c5)CC4)cn3)nc2n(C2CCCC2)c1=O` [CPD-019, 4-((23-(4-(6-((6-Acetyl-8-cyclopentyl-5-methyl-7-oxo-7,8-dihydropyrido[2,3-d]pyrimidin-2-yl)amino)pyridin-3-yl)piperazin-1-yl)-2,22-dioxo-6,9,12,15,18-pentaoxa-3,21-diazatricosyl)oxy)-2-methyl-N-(5-methylthiazol-2-yl)benzamide], in the test with cyclin D1, the “CyclinD1 Degradation (200 nM)” value is reported as “D (protein percentage degradation <30%)”. Moreover, the inhibition at 0.2 µM on CDK4 (Calu-1 cells, 200 nM, 16 hours) was under 30%.
The corresponding values for `CC(=O)c1c(C)c2cnc(Nc3ccc(N4CCN(CC(=O)NCCCCCCCCCNC(=O)c5ccc(C(=O)Nc6ncc(C)s6)c(C)c5)CC4)cn3)nc2n(C2CCCC2)c1=O` [CPD-024, N^4-(9-(2-(4-(6-((6-Acetyl-8-cyclopentyl-5-methyl-7-oxo-7,8-dihydropyrido[2,3-d]pyrimidin-2-yl)amino)pyridin-3-yl)piperazin-1-yl)acetamido)nonyl)-2-methyl-N^1-(5-methylthiazol-2-yl)terephthalamide] are “D (protein percentage degradation <30%)” and under 30%.
As to `CC(=O)c1c(C)c2cnc(Nc3ccc(N4CCN(CC(=O)NCCOCCOCCOCCOCCOCCNc5ccc(C(=O)Nc6ccc(C)cc6)c(C)c5)CC4)cn3)nc2n(C2CCCC2)c1=O` [CPD-025, 4-((1-(4-(6-((6-Acetyl-8-cyclopentyl-5-methyl-7-oxo-7,8-dihydropyrido[2,3-d]pyrimidin-2-yl)amino)pyridin-3-yl)piperazin-1-yl)-2-oxo-6,9,12,15,18-pentaoxa-3-azaicosan-20-yl)amino)-2-methyl-N-(p-tolyl)benzamide], in the test with cyclin D1, the “CyclinD1 Degradation (200 nM)” value is “D (protein percentage degradation <30%)”. In addition, the inhibition at 0.2 µM on CDK4 (Calu-1, 16 h) was under 30%.
The corresponding values for `CC(=O)c1c(C)c2cnc(Nc3ccc(N4CCN(CC(=O)NCCOCCOCCOCCOCCOCCNc5ccc(C(=O)Nc6ccccc6)c(C)c5)CC4)cn3)nc2n(C2CCCC2)c1=O` [CPD-027, 4-((1-(4-(6-((6-Acetyl-8-cyclopentyl-5-methyl-7-oxo-7,8-dihydropyrido[2,3-d]pyrimidin-2-yl)amino)pyridin-3-yl)piperazin-1-yl)-2-oxo-6,9,12,15,18-pentaoxa-3-azaicosan-20-yl)amino)-2-methyl-N-phenylbenzamide] are “D (protein percentage degradation <30%)” and under 30%.
Consider `CC(=O)c1c(C)c2cnc(Nc3ccc(N4CCN(CC(=O)NCCOCCOCCOCCOCCOCCNc5ccc(C(=O)Nc6ncc(F)s6)c(C)c5)CC4)cn3)nc2n(C2CCCC2)c1=O` [CPD-028, 4-((1-(4-(6-((6-Acetyl-8-cyclopentyl-5-methyl-7-oxo-7,8-dihydropyrido[2,3-d]pyrimidin-2-yl)amino)pyridin-3-yl)piperazin-1-yl)-2-oxo-6,9,12,15,18-pentaoxa-3-azaicosan-20-yl)amino)-N-(5-fluorothiazol-2-yl)-2-methylbenzamide], for which the “CyclinD1 Degradation (200 nM)” value in the test on cyclin D1 is “D (protein percentage degradation <30%)”. Moreover, the inhibition at 0.2 µM on CDK4 (Calu-1 cells, 200 nM, 16 hours) was under 30%.
For `CC(=O)c1c(C)c2cnc(Nc3ccc(N4CCN(CC(=O)NCCOCCOCCOCCOCCOCCNc5ccc(C(=O)Nc6ncc(C7CC7)s6)c(C)c5)CC4)cn3)nc2n(C2CCCC2)c1=O` [CPD-029, 4-((1-(4-(6-((6-Acetyl-8-cyclopentyl-5-methyl-7-oxo-7,8-dihydropyrido[2,3-d]pyrimidin-2-yl)amino)pyridin-3-yl)piperazin-1-yl)-2-oxo-6,9,12,15,18-pentaoxa-3-azaicosan-20-yl)amino)-N-(5-cyclopropylthiazol-2-yl)-2-methylbenzamide], the “CyclinD1 Degradation (200 nM)” value in the test with cyclin D1 was “D (protein percentage degradation <30%)”. Also, the inhibition at 0.2 µM at CDK4 (Calu-1 cells, 200 nM, 16 hours) was under 30%.
With `COc1cnc(NC(=O)c2ccc(NCCOCCOCCOCCOCCOCCNC(=O)CN3CCN(c4ccc(Nc5ncc6c(C)c(C(C)=O)c(=O)n(C7CCCC7)c6n5)nc4)CC3)cc2C)s1` [CPD-030, 4-((1-(4-(6-((6-Acetyl-8-cyclopentyl-5-methyl-7-oxo-7,8-dihydropyrido[2,3-d]pyrimidin-2-yl)amino)pyridin-3-yl)piperazin-1-yl)-2-oxo-6,9,12,15,18-pentaoxa-3-azaicosan-20-yl)amino)-N-(5-methoxythiazol-2-yl)-2-methylbenzamide], the “CyclinD1 Degradation (200 nM)” value in the test on cyclin D1 was “B (protein percentage degradation <80%, and >=50%)”. Besides, at CDK4 (Calu-1 cells, 200 nM, 16 hours), the inhibition at 0.2 µM lay in the range of 30 to 50%.
For the compound `COC(=O)c1cnc(NC(=O)c2ccc(NCCOCCOCCOCCOCCOCCNC(=O)CN3CCN(c4ccc(Nc5ncc6c(C)c(C(C)=O)c(=O)n(C7CCCC7)c6n5)nc4)CC3)cc2C)s1` [CPD-032, Methyl 2-(4-((1-(4-(6-((6-acetyl-8-cyclopentyl-5-methyl-7-oxo-7,8-dihydropyrido[2,3-d]pyrimidin-2-yl)amino)pyridin-3-yl)piperazin-1-yl)-2-oxo-6,9,12,15,18-pentaoxa-3-azaicosan-20-yl)amino)-2-methylbenzamido)thiazole-5-carboxylate], in the test on cyclin D1, the “CyclinD1 Degradation (200 nM)” value is listed as “D (protein percentage degradation <30%)”. The inhibition at 0.2 µM at CDK4 (Calu-1 cells, 200 nM, 16 hours) was under 30%.
The corresponding values for `CC(=O)c1c(C)c2cnc(Nc3ccc(N4CCN(CC(=O)NCCOCCOCCOCCOCCOCCNc5ccc(C(=O)Nc6nc(-c7ccccc7)c(C)s6)c(C)c5)CC4)cn3)nc2n(C2CCCC2)c1=O` [CPD-034] are “D (protein percentage degradation <30%)” and under 30%.
On to `CC(=O)c1c(C)c2cnc(Nc3ccc(N4CCN(CC(=O)NCCCCCCCCCNC(=O)CNc5ccc(C(=O)Nc6ncc(C)s6)c(C)c5)CC4)cn3)nc2n(C2CCCC2)c1=O` [CPD-035], for which, in the test on cyclin D1, the “CyclinD1 Degradation (200 nM)” value is “C (protein percentage degradation <50%, and >=30%)”. The inhibition at 0.2 µM at CDK4 (Calu-1 cells, 200 nM, 16 hours) lay within 30 to 50%.
As for `CC(=O)c1c(C)c2cnc(Nc3ccc(N4CCN(CC(=O)NCCCCCNC(=O)COc5ccc(C(=O)Nc6ncc(C)s6)c(C)c5)CC4)cn3)nc2n(C2CCCC2)c1=O` [CPD-036, 4-(2-((5-(2-(4-(6-((6-Acetyl-8-cyclopentyl-5-methyl-7-oxo-7,8-dihydropyrido[2,3-d]pyrimidin-2-yl)amino)pyridin-3-yl)piperazin-1-yl)acetamido)pentyl)amino)-2-oxoethoxy)-2-methyl-N-(5-methylthiazol-2-yl)benzamide], in the test with cyclin D1, the “CyclinD1 Degradation (200 nM)” value was “D (protein percentage degradation <30%)”. Also, the inhibition at 0.2 µM at CDK4 (Calu-1 cells, 200 nM, 16 hours) was under 30%.
In the case of `CC(=O)c1c(C)c2cnc(Nc3ccc(N4CCN(CC(=O)NCCCCCCCNC(=O)COc5ccc(C(=O)Nc6ncc(C)s6)c(C)c5)CC4)cn3)nc2n(C2CCCC2)c1=O` [CPD-037, 4-(2-((7-(2-(4-(6-((6-Acetyl-8-cyclopentyl-5-methyl-7-oxo-7,8-dihydropyrido[2,3-d]pyrimidin-2-yl)amino)pyridin-3-yl)piperazin-1-yl)acetamido)heptyl)amino)-2-oxoethoxy)-2-methyl-N-(5-methylthiazol-2-yl)benzamide], the “CyclinD1 Degradation (200 nM)” value in the test with cyclin D1 is given as “D (protein percentage degradation <30%)”. Besides, the inhibition at 0.2 µM on CDK4 (Calu-1 cells, 200 nM, 16 hours) is under 30%.
On to `CC(=O)c1c(C)c2cnc(Nc3ccc(N4CCN(CC(=O)NCCCCCCCCCNC(=O)COc5ccc(C(=O)Nc6ncc(C)s6)c(C)c5)CC4)cn3)nc2n(C2CCCC2)c1=O` [CPD-038, 4-(2-((9-(2-(4-(6-((6-Acetyl-8-cyclopentyl-5-methyl-7-oxo-7,8-dihydropyrido[2,3-d]pyrimidin-2-yl)amino)pyridin-3-yl)piperazin-1-yl)acetamido)nonyl)amino)-2-oxoethoxy)-2-methyl-N-(5-methylthiazol-2-yl)benzamide], for which the “CyclinD1 Degradation (200 nM)” value in the test with cyclin D1 is “D (protein percentage degradation <30%)”. In addition, at CDK4 (Calu-1 cells, 200 nM, 16 hours), the inhibition at 0.2 µM is under 30%.
